Key:
[1] = system: HSP-90 (heat shock protein 90); test: Determination of affinity for HSP-90 (elution from purine affinity column); type: binding; parameters: key: A stands for very high; B for high; C for moderate; conditions: purine affinity column loaded with organ tissue proteins; eluted with 20μM, 100 μM, and 500 μM of test compound; densitometry
Experimental: Affinity of test compounds for HSP-90 was determined as follows: Protein mixtures obtained from a variety of organ tissues (for example: spleen, liver and lung) were reversibly bound to a purine affinity column to capture purine-binding proteins, especially HSP-90. The purine affinity column was washed several times, and then eluted with 20μM, 100 μM, and 500 μM of test compound. Compounds of Formula I elute HP-90 in a dose-dependent manner vs. a control elution using dimethylsulfoxide. The elution profile of Formula I compounds was determined by 1-dimensional SDS polyacrylamide gel electrophoresis. Gels were stained with a fluorescent stain such as sypro ruby (a highly sensitive fluorescent protein stain that can readily detect less than 1 fmol of total protein, i.e., less than 0.04 ng for a 40 kDa protein) or silver nitrate. The gels were imaged using a standard flat bed gel imager and the amount of protein estimated by densitometry. The percent of HSP-90 protein eluted from the column at each concentration was determined and IC50 values were calculated from these estimates. The identity of a band containing HSP-90 was determined by protein sequencing using mass spectroscopy.
Compounds of the invention are inhibitors of HSP-90 (heat shock protein 90). Several exemplary compounds useful in the methods of the invention are listed below.

PC-3 cell proliferation = test: Cell proliferation assay (WST-1), PC-3 cells; type: cell-based; conditions: Homo sapiens, WST-1 optical density at 450 nm, growth vs DMSO (100%) and 10 μM Actinomycin D (0%), read-out: inhibitory activity against PC-3 cell proliferation (IC50 range)
Experimental: A panel of cancer cell lines was obtained from the DCTP Tumor Repository, National Cancer Institute (Frederick, Md.) or ATCC (Rockville, Md.). Cell cultures were maintained in Hyclone RPMI 1640 medium (Logan, Utah) supplemented with 10% fetal bovine serum and 20 mM HEPES buffer, final pH 7.2, at 37° C. with a 5% CO2 atmosphere. Cultures were maintained at sub-confluent densities. Human umbilical vein endothelial cells (HUVEC) were purchased from Clonetics, a division of Cambrex (Walkersville, Md.). Cultures were established from cryopreserved stocks using Clonetics EGM-2 medium supplemented with 20 mM HEPES, final pH 7.2, at 37° C. with a 5% CO2 atmosphere.
For proliferation assays, cells were seeded with the appropriate medium into 96 well plates at 1,000-2,500 cells per well, depending on the cell line, and were incubated overnight. The following day, test compound, DMSO solution (negative control), or Actinomycin D (positive control) was added to the appropriate wells as 10× concentrated stocks prepared in phosphate buffered saline. The cell plates were then incubated for an additional 2-5 days, depending on the cell line, to allow proliferation to occur. To measure cell density, 50 μL of WST-1 solution (Roche Applied Science, IN) diluted 1:5 in phosphate buffered saline was added to each well, and the cells incubated for an additional 1-5 hrs., again depending on the cell line. Optical density was determined for each well at […] using a Tecan GeniosPro plate reader (RTP, NC). The percentage of cell growth was determined by comparing the cell growth in the presence of test compounds to the cells treated with DMSO vehicle (control, 100% growth) and cells treated with Actinomycin D (10 μM, 0% growth).
Immediately after the WST-1 determination, the medium was removed from the PC-3, NCI-H460 and HUVEC cell lines, and the plates stored at −80° C. Using these assay plates, relative amounts of DNA in each well were determined using the Cyquant DNA assay kit from […] (Eugene, Oreg.) following the manufacturer's directions. Results for each compound treatment were compared to DMSO vehicle control (100%) and 10 μM Actinomycin D treated cells (0%).
Several exemplary compounds useful in the methods of the invention are listed below.

For `Cc1nn(-c2ccc(C#N)c(Br)c2)c2c1C(=O)CC(C)(C)C2` [drawing 95], the “relative binding affinity to HSP-90” value [1] was “C”.
Work on `Cc1nn(-c2ccc(C(N)=O)c(NC3CCC(OC(=O)CCN)CC3)c2)c2c1C(=O)CC(C)(C)C2` (stereo not drawn) yielded an IC50 (PC-3 cell proliferation) of 500 to 5000 nM.
With `CC1(C)CC(=O)c2c(C(F)(F)F)nn(-c3ccc(C(N)=O)c(NC4CCC(OC(=O)[C@@H](N)CCCCN)CC4)c3)c2C1` (stereo partly drawn) the IC50 (PC-3 cell proliferation) was < 500 nM.
Compound `Cc1nn(-c2ccc(C#N)c(Br)c2)c2c1C(=O)CC(C)(C)C2` [drawing 89] has an IC50 (PC-3 cell proliferation) of 5000 to 50000 nM.
With `CC1(C)CC(=O)c2c(C(F)(F)F)nn(-c3ccc(C(N)=O)c(NC4CCC(OC(=O)CCNC(=O)[C@@H](N)CCCN)CC4)c3)c2C1` (stereo partly drawn) the IC50 (PC-3 cell proliferation) was < 500 nM.
In the case of `CC1(C)CC(=O)c2c(C(F)F)nn(-c3ccc(C(N)=O)c(N[C@H]4CC[C@H](O)CC4)c3)c2C1` [drawing 85], the IC50 (PC-3 cell proliferation) is reported as < 500 nM.
For `CS(=O)(=O)O.Cc1nn(-c2ccc(C(N)=O)c(NC3CCC(OC(=O)CCN)CC3)c2)c2c1C(=O)CC(C)(C)C2` (stereo not drawn), the “relative binding affinity to HSP-90” value [1] was “A”.
With `CC1(C)CC(=O)c2c(C(F)F)nn(-c3ccc(C(N)=O)c(N[C@H]4CC[C@H](O)CC4)c3)c2C1` [drawing 91] the “relative binding affinity to HSP-90” value [1] was “A”.
In the case of `CC1(C)CC(=O)c2c(C(F)(F)F)nn(-c3ccc(C(N)=O)c(NC4CCC(OC(=O)[C@@H](N)CCCCN)CC4)c3)c2C1.CS(=O)(=O)O.CS(=O)(=O)O` (stereo partly drawn), the “relative binding affinity to HSP-90” value [1] is reported as “A”.
For `Cc1nn(-c2ccc(C(N)=O)c(NC3CCC(OC(=O)CCNC(=O)OC(C)(C)C)CC3)c2)c2c1C(=O)CC(C)(C)C2` (stereo not drawn) [drawing 88], the IC50 (PC-3 cell proliferation) was < 500 nM.
`Cc1nn(-c2ccc(C(N)=O)c(NC3CCC(OC(=O)CCNC(=O)OC(C)(C)C)CC3)c2)c2c1C(=O)CC(C)(C)C2` (stereo not drawn) [drawing 94] was tested, and the “relative binding affinity to HSP-90” value [1] was “A”.
For `CC1(C)CC(=O)c2c(C(F)(F)F)nn(-c3ccc(C(N)=O)c(NC4CCC(OC(=O)CCNC(=O)[C@@H](N)CCCN)CC4)c3)c2C1.CS(=O)(=O)O.CS(=O)(=O)O` (stereo partly drawn), the “relative binding affinity to HSP-90” value [1] was “A”.

— patent US20070207984A1, “Cyclohexylamino Benzene, Pyridine, and Pyridazine Derivatives” (priority 2006, published 2007)
